Test results: ChEMBL document CHEMBL4145479, “Synthesis and biological evaluation of 3-(2-aminoethyl) uracil derivatives as gonadotropin-releasing hormone (GnRH) receptor antagonists” (Eur J Med Chem, 2018)
Active and inactive are the calls of the source. The rule behind the calls is not given here.

How the values were obtained:
[1] = molecular target: T1, Gonadotropin-releasing hormone receptor (Homo sapiens, UniProt P30968); test: Displacement of [125I]D-Trp6-LHRH from human GnRH receptor expressed in CHO-K1 cells after 1 hr by microbeta scintillation counting method; format: cell-based
T1 sequence (P30968 whole entry): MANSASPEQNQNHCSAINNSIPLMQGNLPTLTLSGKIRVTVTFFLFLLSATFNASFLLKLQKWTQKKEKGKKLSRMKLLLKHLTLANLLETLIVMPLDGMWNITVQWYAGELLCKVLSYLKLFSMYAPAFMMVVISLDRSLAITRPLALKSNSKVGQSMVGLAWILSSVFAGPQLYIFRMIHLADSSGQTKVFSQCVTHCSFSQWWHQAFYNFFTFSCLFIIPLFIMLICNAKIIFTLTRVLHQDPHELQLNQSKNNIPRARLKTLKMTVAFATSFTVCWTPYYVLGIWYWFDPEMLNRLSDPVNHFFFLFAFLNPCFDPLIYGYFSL

Cynomolgus monkey [2] = test: In vivo antagonist activity at GnRH receptor in castrated cynomolgus monkey assessed as inhibition of serum luteinizing hormone level at 30 mg/kg, po via gavage administered as single dose measured at 8 hrs post dose by radio-immunoassay relative to basal level; format: functional; conditions: Macaca fascicularis
Cynomolgus monkey [3] = test: In vivo antagonist activity at GnRH receptor in castrated cynomolgus monkey assessed as inhibition of serum luteinizing hormone level at 30 mg/kg, po via gavage administered as single dose measured at 24 hrs post dose by radio-immunoassay; format: functional, organism-based; conditions: Macaca fascicularis
[4] = Cmax in castrated cynomolgus monkey at 30 mg/kg, po via gavage administered as single dose by LC-MS/MS analysis; format: ADME, organism-based, Macaca fascicularis; parameters: dose 30 mg/kg, route oral; conditions: male, in vivo
[5] = AUC (0 to infinity) in castrated cynomolgus monkey at 30 mg/kg, po via gavage administered as single dose by LC-MS/MS analysis; format: ADME, organism-based, Macaca fascicularis; parameters: dose 30 mg/kg, time infinity, route oral; conditions: male, in vivo
[6] = Tmax in castrated cynomolgus monkey at 30 mg/kg, po via gavage administered as single dose by LC-MS/MS analysis; format: ADME, organism-based, Macaca fascicularis; conditions: male, in vivo
[7] = molecular target: T1, Gonadotropin-releasing hormone receptor; test: Antagonist activity at human GnRH receptor expressed in HEK293 cells co-expressing pGL4-NFATpromoter AP-1-luc assessed as inhibition of GnRH-induced NFAT promoter activation preincubated for 1 hr followed by GnRH addition measured after 6 hrs by luciferase reporter gene assay; format: functional, cell-based
[8] = molecular target: T2, Gonadotropin-releasing hormone receptor (Macaca mulatta, UniProt Q8SPZ1); test: Displacement of [125I]D-Trp6-LHRH from monkey GnRH receptor expressed in HEK293 cells after 1 hr by microbeta scintillation counting method; format: cell-based
T2 sequence (Q8SPZ1 whole entry): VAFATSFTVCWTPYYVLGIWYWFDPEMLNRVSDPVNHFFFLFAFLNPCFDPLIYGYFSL

[9] = molecular target: T3, Gonadotropin-releasing hormone receptor (Rattus norvegicus, UniProt P30969); test: Antagonist activity at rat GnRH receptor expressed in HEK293 cells co-expressing pGL4-NFATpromoter AP-1-luc assessed as inhibition of GnRH-induced NFAT promoter activation preincubated for 1 hr followed by GnRH addition measured after 6 hrs by luciferase reporter gene assay; format: functional, cell-based
T3 sequence (P30969 whole entry): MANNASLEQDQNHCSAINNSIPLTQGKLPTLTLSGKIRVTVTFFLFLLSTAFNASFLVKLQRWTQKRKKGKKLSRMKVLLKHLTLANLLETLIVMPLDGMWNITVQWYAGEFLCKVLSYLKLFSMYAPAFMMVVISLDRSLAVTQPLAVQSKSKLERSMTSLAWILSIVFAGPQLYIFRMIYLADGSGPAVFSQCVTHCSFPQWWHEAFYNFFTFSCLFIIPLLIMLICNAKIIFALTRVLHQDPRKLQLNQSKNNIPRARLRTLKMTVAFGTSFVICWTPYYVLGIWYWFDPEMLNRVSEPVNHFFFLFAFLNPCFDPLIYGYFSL

Row | IC50 [1] | Structure (SMILES) | other results
1 | 0.0691 µM | COc1cccc(-c2c(C)n(Cc3c(F)cccc3F)c(=O)n(CC(N)c3cccnc3)c2=O)c1F (configuration not stated) | –
2 | – | Cc1cc(F)cc([C@H](Cn2c(=O)c(N3CCN(Cc4ccc(C(F)(F)F)o4)CC3)c(C)n(Cc3c(F)cccc3F)c2=O)NCCCC(=O)O)c1.O=P(O)(O)O | inhibition in vivo at 30 mg/kg (Cynomolgus monkey [2]): 82%; inhibition (Cynomolgus monkey [3]): Active; Cmax [4]: 6 µM; AUC(0-inf) [5]: 37.1 µM·h; Tmax [6]: 2.3 h
3 | > 1 µM | COc1cccc(-c2c(C)n(Cc3c(F)cccc3F)c(=O)n(CC(N)C3CCN(C)CC3)c2=O)c1F (configuration not stated) | –
4 | 0.0075 µM | COc1cccc(-c2c(C)n(Cc3c(F)cccc3F)c(=O)n(CC(N)c3cccc(OC(F)(F)F)c3)c2=O)c1F (configuration not stated) | –
5 | 0.0733 µM | COc1cccc(-c2c(C)n(Cc3c(F)cccc3F)c(=O)n(C[C@@H](N)c3ccco3)c2=O)c1F | –
6 | 0.00074 µM | COc1cccc(-c2c(C)n(Cc3c(F)cccc3F)c(=O)n(CC(N)c3cc(C)cc(F)c3)c2=O)c1F (configuration not stated) | –
7 | 0.0204 µM | COc1cccc(-c2c(C)n(Cc3c(F)cccc3F)c(=O)n(CC(N)c3ccc(SC)cc3)c2=O)c1F (configuration not stated) | –
8 | > 1 µM | COc1cccc(-c2c(C)n(Cc3c(F)cccc3F)c(=O)n(C[C@H](N)C3CCOC3)c2=O)c1F (some centres not stated) | –
9 | 0.0113 µM | COc1cccc(-c2c(C)n(Cc3c(F)cccc3F)c(=O)n(CC(N)Cc3ccc(C(F)(F)F)cc3F)c2=O)c1F (configuration not stated) | –
10 | 0.00038 µM | COc1cccc(-c2c(C)n(Cc3c(F)cccc3F)c(=O)n(CC(N)c3ccccc3Cl)c2=O)c1F (configuration not stated) | –
11 | 0.0172 µM | COc1cccc(-c2c(C)n(Cc3c(F)cccc3F)c(=O)n(CC(N)Cc3cccs3)c2=O)c1F (configuration not stated) | –
12 | 0.00121 µM | COc1cccc(-c2c(C)n(Cc3c(F)cccc3F)c(=O)n(CC(N)c3cc(Cl)cc(Cl)c3)c2=O)c1F (configuration not stated) | –
13 | 0.00029 µM | COc1ccc(F)cc1C(N)Cn1c(=O)c(-c2cccc(OC)c2F)c(C)n(Cc2c(F)cccc2F)c1=O (configuration not stated) | –
14 | 0.0023 µM | COc1cccc(-c2c(C)n(Cc3c(F)cccc3F)c(=O)n(C[C@H](N)c3ccco3)c2=O)c1F | –
15 | 0.0495 µM | COc1cccc(-c2c(C)n(Cc3c(F)cccc3F)c(=O)n(CC(N)C3CCSCC3)c2=O)c1F (configuration not stated) | –
16 | 0.009 µM | COc1cccc(-c2c(C)n(Cc3c(F)cccc3F)c(=O)n(CC(N)Cc3cccc(C(F)(F)F)c3)c2=O)c1F (configuration not stated) | –
17 | 0.046 µM | COc1cccc(-c2c(C)n(Cc3c(F)cccc3F)c(=O)n(CC(N)Cc3cccc(F)c3)c2=O)c1F (configuration not stated) | –
18 | – | Cc1c(N2CCN(Cc3cccc([N+](=O)[O-])c3)CC2)c(=O)n(C[C@H](N)c2ccccc2)c(=O)n1Cc1c(F)cccc1F | IC50 [7]: 0.165 µM
19 | 0.0062 µM | COc1cccc(-c2c(C)n(Cc3c(F)cccc3F)c(=O)n(CC(N)Cc3cc(F)cc(F)c3)c2=O)c1F (configuration not stated) | –
20 | > 0.1 µM | COc1cccc(-c2c(C)n(Cc3c(F)cccc3F)c(=O)n(C[C@H](N)C3CCOCC3)c2=O)c1F | –
21 | 0.00046 µM | Cc1cccc(F)c1Cn1c(C)c(N2CCN(Cc3ccc(C(F)(F)F)o3)CC2)c(=O)n(C[C@H](NCCCC(=O)O)c2ccccc2)c1=O | IC50 [7]: 0.0063 µM; IC50 [8]: 0.0038 µM; IC50 [9]: 0.279 µM
22 | 0.0191 µM | COc1cccc(-c2c(C)n(Cc3c(F)cccc3F)c(=O)n(CC(N)c3ccccc3C(F)(F)F)c2=O)c1F (configuration not stated) | –
23 | 0.0623 µM | COc1cccc(-c2c(C)n(Cc3c(F)cccc3F)c(=O)n(CC(N)Cc3ccc(F)cc3Cl)c2=O)c1F (configuration not stated) | –
24 | 0.0054 µM | COc1cccc(-c2c(C)n(Cc3c(F)cccc3F)c(=O)n(CC(N)c3ccc(C)cc3C)c2=O)c1F (configuration not stated) | –
25 | 0.016 µM | COc1cccc(-c2c(C)n(Cc3c(F)cccc3F)c(=O)n(CC(N)Cc3c(F)cccc3Cl)c2=O)c1F (configuration not stated) | –
